The values below come from patent publication US5759835A, “Bacterial nitric oxide synthase” (priority 1995, dated 1998).

“Also recorded” adds a separate entry of the source.

For experiment [1], the target named is NOSNoc. In words: NOSNoc activity, oxyhemoglobin spectrophotometric assay (kinetics and inhibition). Format: biochemical, Nocardia species (NRRL 5646). Particulars: for Ki: model of competitive inhibition; for Mode of inhibition of NO synthesis by NOSNoc: with either L-arginine or L-NOHA as substrate; for Vmax / Km: compound as substrate of NOSNoc. Here is the method: Assays for NOS activity were carried out using a Shimadzu 160 spectrophotometer by observing the increase in absorbance at 401 nm at 25° C. A typical sample assay contained 50 mM potassium phosphate buffer (pH 7.5), 4 μM oxyHb, 100 μM L-arginine of L-NOHA (for kinetic experiments), 100 μM NADPH, 1 mM CaCl2, 10 μM FAD, 10 μM FMN, 80 μM H4 B, 150 μM DTT and 0.1-2 μg enzyme in a final volume of 1 ml. For assays, the reference cuvette contained all components except for L-arginine or L-NOHA. All assays were initiated by adding enzyme.

The test system of experiment [2] is NOSNoc. In words: Stoichiometry of product formation and cofactor utilization by NOSNoc. The note with it: compound as substrate for NOSNoc. The experiment is classed as biochemical, Nocardia species (NRRL 5646). How it is done:
NOS activity was also determined by measuring the decrease in absorbance at 340 nm as NADPH was consumed during the conversation of L-arginine to L-citrulline by NOS. Furfine, E. S., et al. (1993) Biochemistry 32, pp. 8512-8517.
Bredt, D. S., and Snyder, S. H. (1989) Proc. Natl. Acad. Sci. U.S.A. 86, pp. 9030-9033. Reaction samples (50 μl, 100 μM arginine and 1 μCi radioactivity)in 2 ml of stop buffer (20 mM HEPES and 2 mM EDTA, pH 5.5) were applied to a fresh 1-ml Dowex AG50W-X8 (Na+ form, 100-200 mesh) column. Labeled citrulline was eluted with 2 ml of distilled water, and the eluates were collected. Aliquots of 0.1 ml of eluate were dissolved in 5 ml of Budget Solve cocktail in 10 ml scintillation vials, and radioactivity was measured in a Beckman LS 3801 liquid scintillation system.
Nitrite was measured spectrophotometrically using Griess reagent. Green, L. C., et al. (1982) Anal. Biochem. 126, pp. 131-138. […] After standing for 15-30 minutes at room temperature, the absorbance at 540 nm was measured. Nitrite concentrations were estimated by comparison with a standard curve at the range of 0-1.0 μg/ml prepared with standard sodium nitrite in water.
Oxygen concentrations were calculated based on the deflection of the chart recorder versus 206 μM oxygen-total oxygen content in the reaction vessel. Koppenol, W. H. (1985) Adv. Free Radical Biol. Med. 1, 91-131.
Stoichiometric determinations of oxygen consumed, NADPH oxidized, NO and citrulline formed, and kinetic experiments were carried out to confirm that L-NOHA is an intermediate in the biosynthesis of nitric oxide from L-arginine.

Where [3] appears, read: L-Arginine as substrate, mean S.D. of three determinations.
The mark [4] stands for this setting: N^G -Hydroxy-L-arginine as substrate, mean S.D. of three determinations.
Where [5] appears, read: EZ-FIT fit, table values are the mean S.D. of three determinations.
[6] abbreviates: Table III, EZ-FIT fit, mean S.D. of three determinations.

Turning to `N=C(NCCC[C@H](N)C(=O)O)N[N+](=O)[O-]` [N^G -nitro-L-arginine], the figures for the Ki on NOSNoc [1] (setting [3]) and at NOSNoc [1] (setting [4]) were 9.8 ± 0.6 µM and 21.4 ± 1.2 µM, respectively. Besides, the “Mode of inhibition of NO synthesis by NOSNoc” value in the experiment with NOSNoc [1] (listed as L-NNA) is “typical competitive inhibition; also recorded: reversible competitive inhibitors”.
Regarding `N=C(N)NCCC[C@H](N)C(=O)O` [L-Arginine], the Vmax in the experiment on NOSNoc [1] was 607 nmol/min/mg protein. In addition, the Km – broadly, the concentration of substrate that gives half-maximal velocity – in the experiment with NOSNoc [1] (setting [5]) is 5.7 µM. Moreover, the Vmax in the experiment on NOSNoc [1] (setting [6]) is 274 ± 13 nmole/min/mg protein. In the experiment with NOSNoc [2], this compound yielded a Citrulline formation of 4.21 ± 0.17 nmol, an NADPH consump of 8.77 ± 0.32 nmol, a Nitrile formation of 4.63 ± 0.28 nmol and an Oxygen consump of 8.89 ± 0.33 nmol.
For `CNC(=N)NCCC[C@H](N)C(=O)O` [N^G -methyl-L-arginine], the Ki (in general, a dissociation constant, usually derived from enzyme kinetics or from competition with a known ligand) on NOSNoc [1] (setting [3]) turned out to be 6.2 ± 0.4 µM; at NOSNoc [1] (setting [4]), 21.4 ± 1.2 µM. In the experiment with NOSNoc [1] (listed as L-NMA), the “Mode of inhibition of NO synthesis by NOSNoc” value was “typical competitive inhibition; also recorded: reversible competitive inhibitors”.
As to `N=C(NO)NCCC[C@H](N)C(=O)O` [N^G -Hydroxy-L-arginine], the Vmax in the experiment on NOSNoc [1] worked out at 549 nmol/min/mg protein. For the same compound, the Km in the experiment with NOSNoc [1] (setting [5]) was determined as 15.8 µM. Further, in the experiment on NOSNoc [1] (setting [6]), the Vmax is reported as 303 ± 15 nmole/min/mg protein. The Km in the experiment with NOSNoc [1] (value as printed in the discussion) stood at 15.8 µM. In the experiment with NOSNoc [2], this compound registered a Citrulline formation of 4.54 ± 0.21 nmol, an NADPH consump of 4.38 ± 0.24 nmol, a Nitrile formation of 4.57 ± 0.20 nmol and an Oxygen consump of 4.46 ± 0.16 nmol.
